Source: patent publication US10813972B2, “Treatment of DNA damage and mitochondrial dysfunction using palm fruit juice” (BRANDEIS UNIVERSITY, priority 2013, dated 2020)

Tested on: mitochondrial DNA (HV2, CO2, ND1) of HepG2 cells
Assay: mtDNA mutational load in HepG2 cells grown 30 days with INH or INH+PFJ (multiplex LATE-PCR/Lights On-Lights Off assay)
Type: cell-based, human
Details: 88 μM INH, HepG2, 30 days
Procedure: A liver carcinoma cell line (HepG2 cells, ATCC, Manassas, Va.) was grown for 30 days in the presence of either 88 μM INH (Sigma, St. Louis, Mo.) or 88 μM INH+50 μg/ml gallic acid equivalents (GAE) PFJ. A culture without these additives served as a non-treated control. Cells were grown in Eagle's Minimum Essential Medium (ATCC Manassas, Va.). The media were supplemented with 25 mM HEPES, 10% fetal bovine serum (BioWest), 50 units/mL Penicillin G, 50 units/mL Streptomycin, and 0.25 μg Amphotericin B (HyClone Antibiotic/Antimycotic Solution 100×) in 6-well plates at 37° C. and 5% CO2. The media and additives were replenished every other day. The cells were passaged as per ATCC's instructions at an initial density of 1×10^5 cells/ml.
At the end of the culture period, each HepG2 culture was tripsinized, spun at 100×g for 15 min at 4° C. and resuspended in Dulbecco's phosphate buffer solution (Sigma, St. Louis, Mo.) at a concentration of 1×10^3 cells/ml. DNA from these cultures was extracted by placing 5 μl of cell suspension into 32.5 μl volume of a lysis buffer containing 100 μg/ml proteinase K, 10 mM Tris-Cl pH 8.3, and 5 μM SDS (sodium-dodecyl-sulfate) and heating to 50° C. for 2 hours followed by 95° C. for 15 minutes. The samples were then stored at −20° C. […]

In the case of `NNC(=O)c1ccncc1` [INH, isoniazid], the “mtDNA mutational load (fluorescent signature changes indicative of mitochondrial DNA mutations)” value is reported as “increases mtDNA mutational load”.
